Experimental data as given in patent EP2548555A1, “Proton pump inhibitors as immunomodulators” (Fondazione IRCCS Istituto Nazionale dei Tumori, priority 2011, dated 2013).

What was measured:
[1] = test system: Primary human monocytes from HD PBMC; assay type: cell-based
[2] = test system: transgenic adenocarcinoma of the mouse prostate (TRAMP); assay: IFN-γ production of prostate-infiltrating tumor-specific T cells after HSCT, DLI and DC-Tag-IV vaccination; assay type: in vivo, mice; details: PPI i.p. 3 days after DC-Tag-IV vaccine, killed after 24 h; vs PBS
[3] = test system: STAT6; assay: pSTAT evaluation in primary monocytes, IL13 stimulation; assay type: cell-based, human; details: pre-treated 3 hours, in response to IL13 (30 min)
[4] = test system: MDSC in peripheral blood; assay: Peripheral blood cell frequencies in advanced melanoma patients on high dose esomeprazole; assay type: in vivo; details: esomeprazole 120mg/day for 3 days
Description: (§1) We also tested the effect of PPI in advanced melanoma patients receiving high dose esomeprazole (120mg/day for 3 days) in the context of a clinical trial testing the ability of PPI pretreatment to sensitized patients to chemotherapy (CISPLATIN).

[5] = test system: STAT3; assay: STAT3 phosphorylation state in circulating monocytes of treated patients; assay type: in vivo, advanced melanoma patients; details: with respect to cells obtained prior to PPI administration
Description: as §1

[6] = test system: B16-OVA; assay: Survival with adoptive immunotherapy (activated OTI cells) combined with PPI; assay type: in vivo, mice
[7] = test system: allogenic HLA-matched melanoma cells; details: PPI + chemotherapy (CISPLATIN) vs chemotherapy alone
Description: as §1

[8] = test system: STAT3; assay: pSTAT evaluation in primary monocytes, IL6 stimulation; assay type: cell-based, human; details: pre-treated 3 hours, in response to IL6 (30 min)
[9] = test system: STAT1; assay: pSTAT evaluation in primary monocytes, IFNa stimulation; assay type: cell-based, human; details: pre-treated 3 hours, in response to IFNa (30 min)
[10] = test system: B16-OVA melanoma; assay: Flow cytometry of tumor-infiltrating leukocytes after DC-OVA257-264 vaccination; assay type: in vivo, mice; details: 7-day-old melanomas, DC-OVA257-264 vaccine, PPI i.p. on day 3 post vaccine, analysed after 24h; vs PBS
[11] = test system: B16-OVA melanoma cells; assay: Tumor extracellular pH (pHe) by magnetic resonance spectroscopy (MRS); assay type: in vivo, mice; details: esomeprazole 12.5 mg/kg i.p.; reached within 60 min; baseline approximately 6.5
[12] = test system: B16-OVA cells; assay: Functional avidity of tumor CD8+ T cells in the active immunotherapy model (naïve OTI transfer, DC-OVA257-264 vaccine); assay type: in vivo, mice; details: PPI i.p. at day 11, sacrificed 1 day later; vs PBS
[13] = test system: STAT6; assay: STAT6 phosphorylation state in circulating monocytes of treated patients; assay type: in vivo, advanced melanoma patients; details: with respect to cells obtained prior to PPI administration
Description: as §1

[14] = test system: circulating monocytes; assay: Ex-vivo cytokine secretion by circulating monocytes of treated patients; assay type: in vivo, advanced melanoma patients; details: after 3 days of high dose PPI treatment
Description: as §1

[15] = test system: B16 melanoma; assay: Survival of mice bearing B16 melanoma not expressing OVA (OTI control; TBI plus TRP-2-sensitized splenocytes); assay type: in vivo
[16] = Dosing experiments for tolerated dose; set-up: species or system mice; details: mouse, in vivo; dosing experiments ranging from 1.25-600 mg/kg; read-out: highest tolerated dose
[17] = test system: B16-OVA cells; assay: TIL effector function (intracellular IFNγ) after infusion of activated CFSE-labelled OTI cells; assay type: in vivo, mice

Q: Which results are given for `COc1ccc2nc([S@@+]([O-])Cc3ncc(C)c(OC)c3C)[nH]c2c1` [esomeprazole]?
A: release of cytokines/chemokines such as IL-8, GRO and MCD ([1]; PPI pretreatment, data not shown): did not affect; cytokine/chemokine secretion ([1]; esomeprazole 100 µg/ml pre-treatment 3 hours, then mel-EXO 100 µg for 24 hours): significantly reduced; population of TIL specifically reacting against the tumor antigen (CD44+IFN-γ+ within CD8+) [2]: markedly increased; STAT6 phosphorylation [3]: inhibit; frequency of MDSC in peripheral blood [4]: significantly and rapidly decreases; total CD14+, CD3+, CD4+, CD19+ cells or granulocytes in peripheral blood [4]: no change; reduction in STAT3 phosphorylation state [5]: 20%; animal survival ([6]; 8-day melanoma, combined treatment with PPI (12.5 mg/kg) and OTI cells, relative to PBS alone): doubling in the overall survival rate; tumor growth inhibition ([6]; PPI administered before OTI adoptive transfer): equal tumor growth inhibition; tumor immunity in peripheral blood [7]: significant increase; STAT3 phosphorylation [8]: inhibit; STAT1 phosphorylation [9]: inhibit; inflammatory infiltrate of the tumor mass [10]: did not substantially modify; tumor pHe [11]: 7.0; increase in ability of magnetic bead sorted CD8+ T cells to recognize OVA257-264 [12]: by at least one log; reduction in STAT6 phosphorylation state [13]: 15%; ex-vivo secretion of VEGF-A ([14]; before treatment 120±100): 104±58; ex-vivo secretion of TGFβ ([14]; before treatment 1809±900): 1502 ± 755 pg/mL; survival of mice with B16 melanomas not expressing OVA ([15]; OTI cells and PPI treatment): did not impact; Survival ([15]; TBI 600 Rad, TRP-2-sensitized splenocytes plus PPI vs single adoptive transfer of splenocytes only): significantly prolonged; MTD [16]: 12.5 mg/kg; frequency of CFSE+ OT-1 cells ([17]; 12-day-old melanoma, PPI 24h after OTI infusion, sacrificed 1 day later, vs PBS): comparable; percentage of CD44+CD8+IFNY+ T cells in tumor-derived CFSE+ T cells ([17]; 12-day-old melanoma, PPI 24h after OTI infusion, vs PBS): significantly enhanced; IFNY production by CD8+CD44+ T cells isolated from the spleen, lung and kidney ([17]; CFSE+ and CFSE- subsets, PPI- vs PBS-treated groups): did not differ; IFNY production in CFSE- TILs ([17]; endogenous T cells, PPI-treated vs PBS-treated mice): higher IFNY production
